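All cell lines were grown in 96-well plates and treated with compound for 48 hours. GI50: concentration for 50% inhibition of growth. TGI denotes the concentration required for complete inhibition of growth.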
Experiments:
Assay in all cases: inhibition of tumour cell growth, NCI panel, 48 h
A498 renal = test system: A498 renal
EKVX NSCLC = test system: EKVX NSCLC
HT29 colon = test system: HT29 colon
OVCAR-4 ovarian = test system: OVCAR-4 ovarian
RPMI-8226 leukemia = test system: RPMI-8226 leukemia
MDA-MB-435 = test system: MDA-MB-435
LOX IMVI melanoma = test system: LOX IMVI melanoma
HCT-116 colon = test system: HCT-116 colon
MCF7 breast = test system: MCF7 breast
SF-268 CNS = test system: SF-268 CNS
HCC-2998 colon = test system: HCC-2998 colon
SN12C renal = test system: SN12C renal
DU-145 prostate = test system: DU-145 prostate
ACHN renal = test system: ACHN renal
SW-620 colon = test system: SW-620 colon
SF-295 CNS = test system: SF-295 CNS
OVCAR-8 ovarian = test system: OVCAR-8 ovarian
UACC-257 melanoma = test system: UACC-257 melanoma
UO-31 renal = test system: UO-31 renal
HOP-62 NSCLC = test system: HOP-62 NSCLC
A549 NSCLC = test system: A549 NSCLC
KM12 colon = test system: KM12 colon
UACC-62 melanoma = test system: UACC-62 melanoma
PC-3 prostate = test system: PC-3 prostate
HL-60(TB) leukemia = test system: HL-60(TB) leukemia
SK-MEL-2 melanoma = test system: SK-MEL-2 melanoma
HS 578T breast = test system: HS 578T breast
SF-539 CNS = test system: SF-539 CNS
OVCAR-3 ovarian = test system: OVCAR-3 ovarian

With `C=C(C)C(=O)Oc1ccc(N=Nc2ccc(C)cc2)ccc1=O` the TGI (A498 renal) was 14.6 µM, the GI50 (EKVX NSCLC) was 2.32 µM and the TGI (EKVX NSCLC) was 8.76 µM. It also gave a GI50 (HT29 colon) of 4.28 µM, a TGI (HT29 colon) of 15.1 µM and a GI50 (OVCAR-4 ovarian) of 3.63 µM. The TGI (OVCAR-4 ovarian) was 14.4 µM, the GI50 (RPMI-8226 leukemia) was 3.73 µM and the TGI (RPMI-8226 leukemia) was 17.8 µM. It also gave a GI50 (MDA-MB-435) of 2.77 µM, a TGI (MDA-MB-435) of 11.2 µM and a GI50 (LOX IMVI melanoma) of 2.72 µM. The TGI (LOX IMVI melanoma) was 11.4 µM, the GI50 (HCT-116 colon) was 2.98 µM and the TGI (HCT-116 colon) was 10.5 µM. The GI50 (MCF7 breast) was 3.66 µM, the TGI (MCF7 breast) was 14.7 µM and the GI50 (SF-268 CNS) was 2.62 µM. For the same compound, the TGI (SF-268 CNS) was 11.2 µM, the GI50 (HCC-2998 colon) was 3.74 µM and the TGI (HCC-2998 colon) was 14 µM. The GI50 (SN12C renal) was 3.89 µM, the TGI (SN12C renal) was 18.5 µM and the GI50 (DU-145 prostate) was 4.36 µM. It also gave a TGI (DU-145 prostate) of 15.8 µM, a GI50 (ACHN renal) of 3.96 µM and a TGI (ACHN renal) of 15.8 µM. The GI50 (SW-620 colon) was 3.16 µM, the TGI (SW-620 colon) was 13.4 µM and the GI50 (SF-295 CNS) was 1.66 µM. The TGI (SF-295 CNS) was 4.66 µM, the GI50 (OVCAR-8 ovarian) was 3.15 µM and the TGI (OVCAR-8 ovarian) was 10.9 µM. For the same compound, the GI50 (UACC-257 melanoma) was 2.99 µM, the TGI (UACC-257 melanoma) was 13 µM and the GI50 (UO-31 renal) was 2.55 µM. The TGI (UO-31 renal) was 8.38 µM, the GI50 (HOP-62 NSCLC) was 3.78 µM and the TGI (HOP-62 NSCLC) was 14.9 µM. The GI50 (A549 NSCLC) was 3.81 µM, the TGI (A549 NSCLC) was 18.3 µM and the GI50 (KM12 colon) was 3.51 µM. The TGI (KM12 colon) was 13.5 µM, the GI50 (UACC-62 melanoma) was 1.95 µM and the TGI (UACC-62 melanoma) was 4.42 µM. The GI50 (PC-3 prostate) was 5.54 µM, the TGI (PC-3 prostate) was 24.4 µM and the GI50 (HL-60(TB) leukemia) was 2.39 µM. The TGI (HL-60(TB) leukemia) was 7.04 µM, the GI50 (SK-MEL-2 melanoma) was 8.31 µM and the TGI (SK-MEL-2 melanoma) was 28.6 µM. For the same compound, the GI50 (HS 578T breast) was 4.33 µM, the TGI (HS 578T breast) was 24.3 µM and the GI50 (SF-539 CNS) was 5.17 µM. It also gave a TGI (SF-539 CNS) of 18.1 µM, a GI50 (OVCAR-3 ovarian) of 2.09 µM and a TGI (OVCAR-3 ovarian) of 8.13 µM.

Source: PubChem BioAssay (NCI)
